Source: patent US20100239556A1, “PROMOTING ECM PRODUCTION BY FIBROBLAST CELLS AND/OR PROMOTING MIGRATION OF FIBROBLAST CELLS IN A BIOLOGICAL SYSTEM” (TGR BioScience Pty Ltd., priority 2006, published 2010)

Tested on: HFF cells
Experiment: Collagen I in PuraMatrix Peptide Hydrogel (western blot)
Format: cell-based, human
Conditions: one week
Protocol: Additional experiments were also performed to ensure the effects observed using the INTEGRA® as a three-dimensional framework or scaffold were not limited to a bovine collagen/glycosaminoglycan structure and could be achieved in synthetically derived matrices. For these experiments a PuraMatrix™ Peptide Hydrogel was used. The PuraMatrix Peptide Hydrogel is a synthetic matrix that self assembles into a three-dimensional hydrogel (1% w/v amino acids: 99% water) under physiological conditions with a nanometer scale fibrous structure and an average pore size of 50-200 nm. For these experiments, HFF cells were suspended in a 20% sucrose solution, with or without proteins having peroxidase activity, and added 1:1 to neat (1%) PuraMatrix hydrogel and carefully pipette mixed, so as not to create bubbles. Each cell/gel mix was plated in 24 well plates and allowed to partially set at room temperature for 5 min. Next, DMEM supplemented with either 10, 5 or 2% FCS was very slowly overlayed in a dropwise fashion down the edge of the well so as not to disrupt the gel. Plates were placed in a 37° C. incubator for the mix to completely solidify, and the media was changed twice over 1 hr to equilibrate the gel to pH 7.4. The encapsulated hydrogel was incubated for one week, the bathing culture media removed and RIPA buffer added to the gel for total protein extraction. […]

soy bean peroxidase [SBP]
collagen I produced in the Hydrogel matrix (SBP 25 μg/ml in 10% FCS versus 10% FCS alone): produced more collagen I
collagen I produced in the Hydrogel matrix (SBP in 2 or 5% FCS): relatively more collagen I was produced
